According to patent publication US12492188B2, “1H-benzo[D]imidazole derivatives as TLR9 inhibitors for the treatment of fibrosis” (BRISTOL-MYERS SQUIBB COMPANY, priority 2020, dated 2025):
Like-named read-outs stand apart in the source and are kept apart here.

Tests used:
Assay type in all cases: cell-based
human TLR7 = target: T1, human TLR7 (Homo sapiens, UniProt Q9NYK1); experiment: TLR7 inhibition reporter assay (HEK-Blue cells, secreted embryonic alkaline phosphatase reporter); conditions: HEK-Blue cells overexpressing human TLR7, stimulated with gardiquimod 7.5 μM; read-out: TLR 7 IC50
T1 construct: host or cells: HEK-Blue cells (HEK293-derived reporter line)
T1 sequence (Q9NYK1 27-1049): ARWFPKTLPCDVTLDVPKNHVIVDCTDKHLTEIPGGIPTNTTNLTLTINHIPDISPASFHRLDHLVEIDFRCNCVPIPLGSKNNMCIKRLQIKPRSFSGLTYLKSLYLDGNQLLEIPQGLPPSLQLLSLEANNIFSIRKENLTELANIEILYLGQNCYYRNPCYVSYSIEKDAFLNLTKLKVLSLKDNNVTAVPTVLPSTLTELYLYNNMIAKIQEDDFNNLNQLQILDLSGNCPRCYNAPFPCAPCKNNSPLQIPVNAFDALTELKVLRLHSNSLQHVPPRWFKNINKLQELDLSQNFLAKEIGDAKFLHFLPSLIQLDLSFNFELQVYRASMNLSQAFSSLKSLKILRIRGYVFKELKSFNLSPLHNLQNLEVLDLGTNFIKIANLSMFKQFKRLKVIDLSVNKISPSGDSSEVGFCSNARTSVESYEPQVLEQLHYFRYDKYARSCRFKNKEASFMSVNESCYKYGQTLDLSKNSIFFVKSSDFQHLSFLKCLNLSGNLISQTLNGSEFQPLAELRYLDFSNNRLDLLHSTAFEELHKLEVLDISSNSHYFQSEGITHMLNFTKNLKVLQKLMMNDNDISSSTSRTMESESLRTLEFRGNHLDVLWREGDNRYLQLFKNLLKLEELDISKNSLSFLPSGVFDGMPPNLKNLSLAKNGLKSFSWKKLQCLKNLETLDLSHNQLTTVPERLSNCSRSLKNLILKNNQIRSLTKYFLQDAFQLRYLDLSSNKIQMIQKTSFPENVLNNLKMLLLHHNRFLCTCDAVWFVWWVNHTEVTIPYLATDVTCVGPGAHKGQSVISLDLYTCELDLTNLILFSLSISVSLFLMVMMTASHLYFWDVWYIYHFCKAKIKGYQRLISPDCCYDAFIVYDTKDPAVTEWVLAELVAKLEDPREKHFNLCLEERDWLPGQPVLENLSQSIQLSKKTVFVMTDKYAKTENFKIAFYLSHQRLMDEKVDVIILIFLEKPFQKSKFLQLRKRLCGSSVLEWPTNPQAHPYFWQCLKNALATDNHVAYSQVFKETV
In short: (§1)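 HEK-Blue cells overexpressing the respective receptor, with an NF-κB/AP-1-driven SEAP reporter, were pre-treated with compound (0.05 nM–50 μM) for 30 min at room temperature. Stimulation used gardiquimod 7.5 μM (TLR7), R848 15.9 μM (TLR8) or ODN2006 5 nM (TLR9); SEAP was read after 22 h at 37 °C as percent inhibition.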

human TLR8 = target: T2, human TLR8 (Homo sapiens, UniProt Q9NR97); experiment: TLR8 inhibition reporter assay (HEK-Blue cells, secreted embryonic alkaline phosphatase reporter); conditions: HEK-Blue cells overexpressing human TLR8, stimulated with R848 15.9 μM; read-out: TLR 8 IC50
T2 construct: host or cells: HEK-Blue cells (HEK293-derived reporter line)
T2 sequence (Q9NR97 27-1041): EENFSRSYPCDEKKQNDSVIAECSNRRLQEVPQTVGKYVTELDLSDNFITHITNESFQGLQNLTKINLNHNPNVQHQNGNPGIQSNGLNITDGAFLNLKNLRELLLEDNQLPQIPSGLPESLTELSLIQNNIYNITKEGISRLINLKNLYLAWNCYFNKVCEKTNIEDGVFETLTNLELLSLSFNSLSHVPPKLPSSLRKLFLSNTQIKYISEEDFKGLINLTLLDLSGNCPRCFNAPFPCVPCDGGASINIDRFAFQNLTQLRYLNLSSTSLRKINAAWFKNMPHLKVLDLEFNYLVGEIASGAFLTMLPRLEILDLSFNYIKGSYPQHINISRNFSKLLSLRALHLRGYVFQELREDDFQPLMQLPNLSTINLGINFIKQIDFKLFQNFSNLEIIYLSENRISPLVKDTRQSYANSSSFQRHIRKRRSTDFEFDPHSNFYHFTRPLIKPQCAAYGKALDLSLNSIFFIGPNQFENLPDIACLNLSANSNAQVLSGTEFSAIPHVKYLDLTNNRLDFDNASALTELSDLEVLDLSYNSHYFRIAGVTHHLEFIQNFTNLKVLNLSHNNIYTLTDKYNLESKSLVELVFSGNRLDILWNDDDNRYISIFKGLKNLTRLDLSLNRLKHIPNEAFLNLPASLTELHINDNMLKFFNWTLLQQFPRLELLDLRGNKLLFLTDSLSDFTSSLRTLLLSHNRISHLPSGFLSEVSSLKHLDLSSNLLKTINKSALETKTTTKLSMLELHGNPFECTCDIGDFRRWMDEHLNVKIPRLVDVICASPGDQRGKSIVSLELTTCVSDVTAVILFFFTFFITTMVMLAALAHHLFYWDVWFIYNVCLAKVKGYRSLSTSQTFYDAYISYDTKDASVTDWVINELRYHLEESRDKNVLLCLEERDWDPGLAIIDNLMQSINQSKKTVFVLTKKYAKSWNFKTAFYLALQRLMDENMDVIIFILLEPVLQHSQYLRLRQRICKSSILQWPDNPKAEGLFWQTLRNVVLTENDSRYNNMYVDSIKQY
In short: as §1

human TLR9 = target: T3, human TLR9 (Homo sapiens, UniProt Q9NR96); experiment: TLR9 inhibition reporter assay (HEK-Blue cells, secreted embryonic alkaline phosphatase reporter)
T3 construct: host or cells: HEK-Blue cells (HEK293-derived reporter line)
T3 sequence (Q9NR96 26-1032): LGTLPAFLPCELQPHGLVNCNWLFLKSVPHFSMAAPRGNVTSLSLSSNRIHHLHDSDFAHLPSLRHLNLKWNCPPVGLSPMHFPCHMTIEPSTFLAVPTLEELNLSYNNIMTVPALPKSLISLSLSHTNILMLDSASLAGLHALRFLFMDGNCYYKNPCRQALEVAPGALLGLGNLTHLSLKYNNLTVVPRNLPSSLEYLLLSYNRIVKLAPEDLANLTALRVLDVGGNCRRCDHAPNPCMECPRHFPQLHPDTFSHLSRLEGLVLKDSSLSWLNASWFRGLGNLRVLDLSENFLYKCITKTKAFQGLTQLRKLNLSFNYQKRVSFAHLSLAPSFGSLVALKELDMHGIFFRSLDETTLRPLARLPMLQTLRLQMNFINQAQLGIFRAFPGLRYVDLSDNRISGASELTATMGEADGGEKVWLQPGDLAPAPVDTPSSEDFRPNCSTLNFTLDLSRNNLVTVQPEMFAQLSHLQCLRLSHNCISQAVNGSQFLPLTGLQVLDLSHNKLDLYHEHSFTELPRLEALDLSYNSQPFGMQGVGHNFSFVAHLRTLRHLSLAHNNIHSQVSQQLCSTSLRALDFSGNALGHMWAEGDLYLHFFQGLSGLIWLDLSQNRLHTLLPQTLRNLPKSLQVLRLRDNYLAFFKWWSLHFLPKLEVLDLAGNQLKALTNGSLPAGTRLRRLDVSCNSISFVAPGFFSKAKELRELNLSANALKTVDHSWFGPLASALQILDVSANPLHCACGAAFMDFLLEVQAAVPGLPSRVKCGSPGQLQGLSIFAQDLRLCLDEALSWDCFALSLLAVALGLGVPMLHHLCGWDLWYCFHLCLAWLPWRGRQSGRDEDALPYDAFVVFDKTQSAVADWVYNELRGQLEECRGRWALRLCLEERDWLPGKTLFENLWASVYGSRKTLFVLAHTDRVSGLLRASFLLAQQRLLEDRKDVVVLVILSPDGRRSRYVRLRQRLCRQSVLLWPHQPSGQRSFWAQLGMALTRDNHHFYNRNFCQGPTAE
In short: as §1

[1] = HEK-Blue cells overexpressing human TLR9, stimulated with ODN2006 5 nM, read-out: TLR 9 IC50
[2] = HEK-Blue cells overexpressing human TLR9, stimulated with ODN2006 5 nM, 22 hour incubation, reporter readout

Structure (SMILES) | IC50 (human TLR7) [nM] | IC50 (human TLR8) [nM] | IC50 (human TLR9) [nM] | IC50 (human TLR9; [1]) [nM] | IC50 (human TLR9; [2]) [nM] | IC50 (human TLR9; HEK-Blue human TLR9 reporter cells) [nM]
CC(C)CN1C2CCC1CC(N1CCC(c3ccc4c(nc(-c5ccc(S(C)(=O)=O)cc5)n4C)c3F)CC1)C2 (single isomer, unassigned) [Example 189, 4-fluoro-5-(1-(8-isobutyl-8-azabicyclo[3.2.1]octan-3-yl)piperidin-4-yl)-1-methyl-2-(4-(methylsulfonyl)phenyl)-1H-benzo[d]imidazole] | > 50000 | > 50000 | 150 | 154 |  | 
COCCN1CCC(N2CCC(c3cc4nc(-c5ccc(S(C)(=O)=O)cc5)n(C)c4cc3F)CC2)CC1 [Example 246, 6-fluoro-5-(1′-(2-methoxyethyl)-[1,4′-bipiperidin]-4-yl)-1-methyl-2-(4-(methylsulfonyl)phenyl)-1H-benzo[d]imidazole] | 26200 | > 50000 | 400 | 398 |  | 
Cn1c(-c2ccc(S(C)(=O)=O)cc2)nc2cc(C3CCN(C4CC5CCC(C4)N5C4CCC4)CC3)cc(F)c21 (single isomer, unassigned) [Example 216, 5-(1-(8-cyclobutyl-8-azabicyclo[3.2.1]octan-3-yl)piperidin-4-yl)-7-fluoro-1-methyl-2-(4-(methylsulfonyl)phenyl)-1H-benzo[d]imidazole] | 23200 | > 50000 | 270 | 269 |  | 
Cn1c(-c2ccc(S(C)(=O)=O)cc2)nc2cc(C3CCN(C4CCN(C5CC5)CC4)CC3)c(F)cc21 [Example 241, 5-(1′-cyclopropyl-[1,4′-bipiperidin]-4-yl)-6-fluoro-1-methyl-2-(4-(methylsulfonyl)phenyl)-1H-benzo[d]imidazole] | > 50000 | > 50000 | 1700 | 1710 |  | 
COCCN1CCC(N2CCC(c3cc4c(cc3F)nc(-c3ccc(S(C)(=O)=O)cc3)n4C)CC2)CC1 [Example 227, 5-fluoro-6-(1′-(2-methoxyethyl)-[1,4′-bipiperidin]-4-yl)-1-methyl-2-(4-(methylsulfonyl)phenyl)-1H-benzo[d]imidazole] | 27400 | > 50000 | 410 | 407 |  | 

The next molecules have a lower IC50 (human TLR7) than those just listed; values first:

IC50 (human TLR7) [nM] | IC50 (human TLR8) [nM] | IC50 (human TLR9) [nM] | IC50 (human TLR9; [1]) [nM] | IC50 (human TLR9; [2]) [nM] | IC50 (human TLR9; HEK-Blue human TLR9 reporter cells) [nM] | Structure (SMILES)
18800 | > 50000 | 100 | 100 |  |  | COCCN1C2CCC1CC(N1CCC(c3cc4nc(-c5ccc(S(C)(=O)=O)cc5)n(C)c4cc3F)CC1)C2 (centres unmarked) [Example 258, 6-fluoro-5-(1-(8-(2-methoxyethyl)-8-azabicyclo[3.2.1]octan-3-yl)piperidin-4-yl)-1-methyl-2-(4-(methylsulfonyl)phenyl)-1H-benzo[d]imidazole]
14500 | > 25000 |  |  | 19 |  | Cc1cc(C2CCN(C3CC4CCC(C3)N4CC(C)C)CC2)cc2[nH]c(-c3ccc(S(C)(=O)=O)cc3)nc12 (centres unmarked) [Example 121, 6-(1-(8-isobutyl-8-azabicyclo[3.2.1]octan-3-yl)piperidin-4-yl)-4-methyl-2-(4-(methylsulfonyl)phenyl)-1H-benzo[d]imidazole]
14100 | > 50000 |  | 22 |  | 22 | CC(C)CN1CCCC(N2CCC(c3cc(F)c4nc(-c5ccc(S(C)(=O)=O)cc5)n(C)c4c3)CC2)CC1 (centres unmarked) [Example 296, 4-fluoro-6-(1-(1-isobutylazepan-4-yl)piperidin-4-yl)-1-methyl-2-(4-(methylsulfonyl)phenyl)-1H-benzo[d]imidazole]
5200 | > 50000 |  |  | 300 |  | Cc1cc(-c2ccc(N3CCN(C(C)C)CC3)cc2)cc2c1nc(-c1ccc(S(C)(=O)=O)cc1)n2C [Example 86, 6-(4-(4-isopropylpiperazin-1-yl)phenyl)-1,4-dimethyl-2-(4-(methylsulfonyl)phenyl)-1H-benzo[d]imidazole]
2600 | > 50000 |  |  | 24 |  | COc1ccc(-c2nc3c(C)cc(C4C[C@H]5CC[C@@H](C4)N5C4CCN(C(C)C)CC4)cc3n2C)cc1OC (mixture of isomers) [Example 21, 2-(3,4-dimethoxyphenyl)-6-(8-(1-isopropylpiperidin-4-yl)-8-azabicyclo[3.2.1]octan-3-yl)-1,4-dimethyl-1H-benzo[d]imidazole]
2300 | 20700 | 280 | 281 |  |  | Cn1c(-c2ccc(S(C)(=O)=O)cc2)nc2ccc(C3CCN(C4CCN(C5CCOCC5)CC4)CC3)c(F)c21 [Example 264, 7-fluoro-1-methyl-2-(4-(methylsulfonyl)phenyl)-6-(1′-(tetrahydro-2H-pyran-4-yl)-[1,4′-bipiperidin]-4-yl)-1H-benzo[d]imidazole]
